Measured values taken from US6716422B1, “Vaccine adjuvants for immunotherapy of melanoma” (ARCH Development Corporation, priority 1998, dated 2004).
Ends that are not written are not given here.

Key:
[1] = room temperature; cited from earlier work
[2] = system: advanced renal cell carcinoma; details: cited from earlier work
[3] = cited from earlier work
[4] = cited from earlier work; remark: listed apart in the source
[5] = system: melanoma cell lines expressing MAGE-3; details: activated B cells or dendritic cells, HLA-A2 donor; only if IL-12 included during initial stimulation; cited from earlier work
[6] = system: peptide-specific, IFN-γ-producing CD8+ T cells; assay: Human vaccination study: peptide-specific T cell response; details: one line per patient
Protocol: Following immunization, assays for peptide specific CTL activity and cytokine production, in particular IFN-γ were conducted.
For each vaccination, 100 cc heparinized blood was obtained and PBMC isolated by Lymphoprep centrifugation. A portion of cells was set aside and separated into CD8+ and CD8-fractions for cryopreservation.
Pulsed PBMC were irradiated (2000 rad), centrifuged, and resuspended in 2 cc DPBS for injection.
Injection of pulsed PBMC was performed subcutaneously, divided between 2 sites, either in upper arms or proximal legs.
rhIL-12, at the assigned dose level (ng/kg), was injected subcutaneously near one of the two vaccine sites.
The entire procedure was repeated every 3 weeks, with clinical reevaluation every 3 cycles.
In vitro expansion of CD8^+ T cells for testing was performed using minimal activation conditions: peptide-pulsed CD8-negative cells as APCs, only 10 U/ml rIL-2 added on day 2 of each stimulation, with one 6-day stimulation followed by a second 4-5 day stimulation.

[7] = system: refractory metastatic melanoma; assay: Human vaccination study: clinical outcome; assay type: in vivo; details: one line per patient
Text: Evaluation of tumor regression is a secondary endpoint in this study. Tumor masses are characterized carefully with bidimensional measurements.
Criteria for a Partial Response (PR): 50% reduction in the sum of the product of the largest perpendicular diameters of the indicator lesions identified prior to therapy.
Criteria for a Complete Response (CR): total disappearance of all evidence of tumor without appearance of new lesions.
Criteria for Progressive Disease (PD): appearance of new lesions; and/or fifty percent increase in the sum of the product of the largest perpendicular diameters of the indicator lesions.
Criteria for Stable Disease (SD): Failure to meet the criteria for a Partial Response, Complete Response, or Progressive Disease.

[8] = Relative hydrophilicity/solubility of tumor peptides; assay type: physicochemical
Protocol: Peptides encoded by several of the unique tumor antigens of the tum^− variants have been defined, such as the P198 peptide used in one of the examples herein. […] Therefore, initial peptide-based immunization studies were performed using the more soluble P198 peptide. Information gained was then examined using P1A peptide as well. Studies with P1A are important in order to measure efficacy of immunization in vivo in terms of protection against living tumor challenge and regression of pre-established tumors. These types of studies would not be possible with P198 because that tumor is rejected spontaneously.

rhIL-12: recombinant human interleukin-12, manufactured by the Genetics Institute
Time within which unit doses in a syringe must be used [1]: ≤ 4 h | Patients requiring hospitalization for adverse events ([2]; 500 ng/kg/day intravenously 5 times per wk, 16 day rest): 12 of the 17 | Deaths attributed to rhIL-12 ([2]; 500 ng/kg/day intravenously): Two | Patient deaths ([2]; 500 ng/kg/day intravenously): 4 | Tolerability ([3]; in vivo): well tolerated | Renal cell carcinoma patients with a minor response ([3]; subcutaneous schedule): Two | Toxicities ([4]; intravenous, 3-1000 ng/kg/day): transient cytopenias (nadirs occurring 2-5 days after treatment), reversible increases of transaminases and bilirubin, transient hyperglycemia, stomatitis, and capillary leak syndrome | Maximally tolerated dose ([4]; intravenous, single test dose, 2 wk later daily for 5 days, every 3 wk): 500 ng/kg/day | Tumor responses ([4]; patients with various malignancies): several tumor responses observed

FLWGPRALV [Mage3]
Induction of specific CTL [5]: specific CTL induced | Evidence Immunized? ([6]; IL-12 dose 0): No | Evidence Immunized? ([6]; IL-12 dose 30 ng/kg): Yes | Clinical Outcome ([7]; IL-12 dose 0): PD (appearance of new lesions; and/or fifty percent increase in the sum of the product of the largest perpendicular diameters of the indicator lesions) | Clinical Outcome ([7]; IL-12 dose 30 ng/kg): PD (appearance of new lesions; and/or fifty percent increase in the sum of the product of the largest perpendicular diameters of the indicator lesions) | Clinical Outcome ([7]; IL-12 dose 100 ng/kg): PD (appearance of new lesions; and/or fifty percent increase in the sum of the product of the largest perpendicular diameters of the indicator lesions)

KYQAVTTTL [P198 peptide]
Hydrophilicity relative to P1A peptide [8]: more hydrophilic than the P1A peptide
